How the values were obtained:
Test in all cases: Ceftazidime MIC with fixed concentration of BLI
Type in all cases: cell-based
[1] = test system: ec302 Escherichia coli TEM-10; details: derivative at 10 μg/mL; ec302 TEM-10
Experimental: (§1) Next, ceftazidime potentiation activity of several cyclic boronic acid ester derivatives was tested using a larger panel of strains expressing β-lactamase hydrolyzing enzymes. Ceftazidime MICs were determined alone and in the presence of fixed concentrations of various cyclic boronic acid ester derivatives.

[2] = test system: KP1012 Klebsiella pneumoniae SHV-18; details: derivative at 10 μg/mL; KP1012 SHV-18
Experimental: as §1

[3] = test system: KX1000 Klebsiella oxytoca OXA-2; details: derivative at 10 μg/mL; KX1000 OXA-2
Experimental: as §1

[4] = test system: EC1007 Escherichia coli KPC-3; details: derivative at 10 μg/mL; EC1007 KPC-3
Experimental: as §1

[5] = test system: ECL1002 Enterobacter cloacae Hyper AmpC expression; details: derivative at 10 μg/mL
Experimental: as §1

[6] = test system: EC1009 Escherichia coli TEM-10; details: derivative at 10 μg/mL; EC1009 TEM-10
Experimental: as §1

[7] = test system: EC1004 Escherichia coli CMY-2; details: derivative at 10 μg/mL; EC1004 CMY-2
Experimental: as §1

[8] = test system: AB1057 Acinetobacter baumannii OXA-58; details: derivative at 10 μg/mL; AB1057 OXA-58
Experimental: as §1

[9] = test system: EC1010 Escherichia coli CMY-6; details: derivative at 10 μg/mL; EC1010 CMY-6
Experimental: as §1

[10] = test system: ec310 Escherichia coli ACT-1; details: derivative at 10 μg/mL; ec310 ACT-1
Experimental: as §1

[11] = test system: KP1004 Klebsiella pneumoniae KPC-2; details: derivative at 10 μg/mL; KP1004 KPC-2
Experimental: as §1

[12] = test system: PAM2005 Pseudomonas aeruginosa ampC; details: derivative at 10 μg/mL
Experimental: as §1

[13] = test system: ec301 Escherichia coli TEM-6; details: derivative at 10 μg/mL; ec301 TEM-6
Experimental: as §1

[14] = test system: pa1063 Pseudomonas aeruginosa GES-1; details: derivative at 10 μg/mL; pa1063 GES-1
Experimental: as §1

[15] = test system: EC1011 Escherichia coli TEM-26; details: derivative at 10 μg/mL; EC1011 TEM-26
Experimental: as §1

[16] = test system: ec303 Escherichia coli TEM-12; details: derivative at 10 μg/mL; ec303 TEM-12
Experimental: as §1

[17] = test system: ec308 Escherichia coli SHV-5; details: derivative at 10 μg/mL; ec308 SHV-5
Experimental: as §1

[18] = test system: ec300 Escherichia coli TEM-3; details: derivative at 10 μg/mL; ec300 TEM-3
Experimental: as §1

[19] = test system: ec309 Escherichia coli MIR-1; details: derivative at 10 μg/mL; ec309 MIR-1
Experimental: as §1

[20] = test system: EC1014 Escherichia coli DHA-1; details: derivative at 10 μg/mL; EC1014 DHA-1
Experimental: as §1

[21] = test system: CF1000 Citrobacter freundii Hyper AmpC expression; details: derivative at 10 μg/mL
Experimental: as §1

[22] = test system: EC1012 Escherichia coli TEM-12; details: derivative at 10 μg/mL; EC1012 TEM-12
Experimental: as §1

[23] = test system: KP1005 Klebsiella pneumoniae CTX-M-14; details: derivative at 10 μg/mL; KP1005 CTX-M-14
Experimental: as §1

[24] = test system: KP1008 Klebsiella pneumoniae KPC-2; details: derivative at 10 μg/mL; KP1008 KPC-2
Experimental: as §1

[25] = test system: EC1008 Escherichia coli CTX-M3; details: derivative at 10 μg/mL
Experimental: as §1

[26] = test system: AB1054 Acinetobacter baumannii OXA-23; details: derivative at 10 μg/mL; AB1054 OXA-23
Experimental: as §1

[27] = test system: KP1009 Klebsiella pneumoniae CTX-M-15; details: derivative at 10 μg/mL; KP1009 CTX-M-15
Experimental: as §1

[28] = test system: ec306 Escherichia coli SHV-2; details: derivative at 10 μg/mL; ec306 SHV-2
Experimental: as §1

[29] = test system: EC1006 Escherichia coli FOX-5; details: derivative at 10 μg/mL; EC1006 FOX-5
Experimental: as §1

[30] = test system: KP1007 Klebsiella pneumoniae OXA-10; details: derivative at 10 μg/mL; KP1007 OXA-10
Experimental: as §1

[31] = test system: PAM2035 Pseudomonas aeruginosa ampC mexA:tet; details: derivative at 10 μg/mL
Experimental: as §1

Compound: O=C(O)C[C@@H]1CC[C@H](NC(=O)Cc2ccccc2)B(O)O1 [Compound 6, 2-((3R,6S)-2-hydroxy-3-(2-phenylacetamido)-1,2-oxaborinan-6-yl)acetic acid]
- Ceftazidime MIC with cyclic boronic acid ester derivative [1]: Z (MIC of greater than 8 μg/mL)
- Ceftazidime MIC with cyclic boronic acid ester derivative [2]: Y (MIC of greater than 1 μg/mL to 8 μg/mL)
- Ceftazidime MIC with cyclic boronic acid ester derivative [3]: Y (MIC of greater than 1 μg/mL to 8 μg/mL)
- Ceftazidime MIC with cyclic boronic acid ester derivative [4]: X (MIC of 1 μg/mL or less)
- Ceftazidime MIC with cyclic boronic acid ester derivative [5]: Y (MIC of greater than 1 μg/mL to 8 μg/mL)
- Ceftazidime MIC with cyclic boronic acid ester derivative [6]: Z (MIC of greater than 8 μg/mL)
- Ceftazidime MIC with cyclic boronic acid ester derivative [7]: Y (MIC of greater than 1 μg/mL to 8 μg/mL)
- Ceftazidime MIC with cyclic boronic acid ester derivative [8]: Z (MIC of greater than 8 μg/mL)
- Ceftazidime MIC with cyclic boronic acid ester derivative [9]: Y (MIC of greater than 1 μg/mL to 8 μg/mL)
- Ceftazidime MIC with cyclic boronic acid ester derivative [10]: X (MIC of 1 μg/mL or less)
- Ceftazidime MIC with cyclic boronic acid ester derivative [11]: Y (MIC of greater than 1 μg/mL to 8 μg/mL)
- Ceftazidime MIC with cyclic boronic acid ester derivative [12]: Z (MIC of greater than 8 μg/mL)
- Ceftazidime MIC with cyclic boronic acid ester derivative [13]: Z (MIC of greater than 8 μg/mL)
- Ceftazidime MIC with cyclic boronic acid ester derivative [14]: Z (MIC of greater than 8 μg/mL)
- Ceftazidime MIC with cyclic boronic acid ester derivative [15]: Z (MIC of greater than 8 μg/mL)
- Ceftazidime MIC with cyclic boronic acid ester derivative [16]: Y (MIC of greater than 1 μg/mL to 8 μg/mL)
- Ceftazidime MIC with cyclic boronic acid ester derivative [17]: Z (MIC of greater than 8 μg/mL)
- Ceftazidime MIC with cyclic boronic acid ester derivative [18]: Z (MIC of greater than 8 μg/mL)
- Ceftazidime MIC with cyclic boronic acid ester derivative [19]: X (MIC of 1 μg/mL or less)
- Ceftazidime MIC with cyclic boronic acid ester derivative [20]: X (MIC of 1 μg/mL or less)
- Ceftazidime MIC with cyclic boronic acid ester derivative [21]: Y (MIC of greater than 1 μg/mL to 8 μg/mL)
- Ceftazidime MIC with cyclic boronic acid ester derivative [22]: Y (MIC of greater than 1 μg/mL to 8 μg/mL)
- Ceftazidime MIC with cyclic boronic acid ester derivative [23]: Z (MIC of greater than 8 μg/mL)
- Ceftazidime MIC with cyclic boronic acid ester derivative [24]: X (MIC of 1 μg/mL or less)
- Ceftazidime MIC with cyclic boronic acid ester derivative [25]: Y (MIC of greater than 1 μg/mL to 8 μg/mL)
- Ceftazidime MIC with cyclic boronic acid ester derivative [26]: Z (MIC of greater than 8 μg/mL)
- Ceftazidime MIC with cyclic boronic acid ester derivative [27]: Z (MIC of greater than 8 μg/mL)
- Ceftazidime MIC with cyclic boronic acid ester derivative [28]: Z (MIC of greater than 8 μg/mL)
- Ceftazidime MIC with cyclic boronic acid ester derivative [29]: Y (MIC of greater than 1 μg/mL to 8 μg/mL)
- Ceftazidime MIC with cyclic boronic acid ester derivative [30]: Y (MIC of greater than 1 μg/mL to 8 μg/mL)
- Ceftazidime MIC with cyclic boronic acid ester derivative [31]: Y (MIC of greater than 1 μg/mL to 8 μg/mL)

Compound: Cl.N[C@H]1CCC(CC(=O)O)OB1O (stereo partly drawn) [Compound 7, 2-((3R)-3-amino-2-hydroxy-1,2-oxaborinan-6-yl)acetic acid hydrochloride]
- Ceftazidime MIC with cyclic boronic acid ester derivative [1]: Z (MIC of greater than 8 μg/mL)
- Ceftazidime MIC with cyclic boronic acid ester derivative [2]: Z (MIC of greater than 8 μg/mL)
- Ceftazidime MIC with cyclic boronic acid ester derivative [3]: Y (MIC of greater than 1 μg/mL to 8 μg/mL)
- Ceftazidime MIC with cyclic boronic acid ester derivative [4]: Z (MIC of greater than 8 μg/mL)
- Ceftazidime MIC with cyclic boronic acid ester derivative [5]: Z (MIC of greater than 8 μg/mL)
- Ceftazidime MIC with cyclic boronic acid ester derivative [6]: Z (MIC of greater than 8 μg/mL)
- Ceftazidime MIC with cyclic boronic acid ester derivative [7]: Z (MIC of greater than 8 μg/mL)
- Ceftazidime MIC with cyclic boronic acid ester derivative [8]: Z (MIC of greater than 8 μg/mL)
- Ceftazidime MIC with cyclic boronic acid ester derivative [9]: Z (MIC of greater than 8 μg/mL)
- Ceftazidime MIC with cyclic boronic acid ester derivative [10]: Z (MIC of greater than 8 μg/mL)
- Ceftazidime MIC with cyclic boronic acid ester derivative [11]: Z (MIC of greater than 8 μg/mL)
- Ceftazidime MIC with cyclic boronic acid ester derivative [12]: Z (MIC of greater than 8 μg/mL)
- Ceftazidime MIC with cyclic boronic acid ester derivative [13]: Z (MIC of greater than 8 μg/mL)
- Ceftazidime MIC with cyclic boronic acid ester derivative [14]: Z (MIC of greater than 8 μg/mL)
- Ceftazidime MIC with cyclic boronic acid ester derivative [15]: Z (MIC of greater than 8 μg/mL)
- Ceftazidime MIC with cyclic boronic acid ester derivative [16]: Z (MIC of greater than 8 μg/mL)
- Ceftazidime MIC with cyclic boronic acid ester derivative [17]: Z (MIC of greater than 8 μg/mL)
- Ceftazidime MIC with cyclic boronic acid ester derivative [18]: Z (MIC of greater than 8 μg/mL)
- Ceftazidime MIC with cyclic boronic acid ester derivative [19]: Z (MIC of greater than 8 μg/mL)
- Ceftazidime MIC with cyclic boronic acid ester derivative [20]: Z (MIC of greater than 8 μg/mL)
- Ceftazidime MIC with cyclic boronic acid ester derivative [21]: Z (MIC of greater than 8 μg/mL)
- Ceftazidime MIC with cyclic boronic acid ester derivative [22]: Z (MIC of greater than 8 μg/mL)
- Ceftazidime MIC with cyclic boronic acid ester derivative [23]: Z (MIC of greater than 8 μg/mL)
- Ceftazidime MIC with cyclic boronic acid ester derivative [24]: Z (MIC of greater than 8 μg/mL)
- Ceftazidime MIC with cyclic boronic acid ester derivative [25]: Z (MIC of greater than 8 μg/mL)
- Ceftazidime MIC with cyclic boronic acid ester derivative [26]: Z (MIC of greater than 8 μg/mL)
- Ceftazidime MIC with cyclic boronic acid ester derivative [27]: Z (MIC of greater than 8 μg/mL)
- Ceftazidime MIC with cyclic boronic acid ester derivative [28]: Z (MIC of greater than 8 μg/mL)
- Ceftazidime MIC with cyclic boronic acid ester derivative [29]: Z (MIC of greater than 8 μg/mL)
- Ceftazidime MIC with cyclic boronic acid ester derivative [30]: Z (MIC of greater than 8 μg/mL)
- Ceftazidime MIC with cyclic boronic acid ester derivative [31]: Z (MIC of greater than 8 μg/mL)

From patent US11090319B2, “Therapeutic uses of pharmaceutical compositions comprising cyclic boronic acid ester derivatives” (Melinta Subsidiary Corp., priority 2010, dated 2021)
